{"source": "paper PMC11931604", "about": "(Drug Development Research, 2025)", "target": "D112_2N-mutant H3 HA (A/X-31) (Influenza A virus, UniProt P03438, D457N)", "format": "cell-based, influenza A/H3N2 virus"}
{"smiles": "CC1CCC2(CC1)SC(C)C(=O)N2NC(=O)c1ccc(C(C)(C)C)cc1", "note": "(stereo not shown) [Compound 2c, 4‐(tert‐Butyl)‐N‐(2,8‐dimethyl‐3‐oxo‐1‐thia‐4‐azaspiro[4.5]decan‐4‐yl)benzamide]", "values": [{"measurement": "inhibition of membrane fusion in cells expressing D112_2N-substituted HA", "value": "no inhibition"}]}
